Measurements reported in patent US8956589B2, “Imaging diagnostic agent and extracorporeal diagnostic agent for incurable neurological diseases” (Shiga University of Medical Science, priority 2009, dated 2015).

Tests used:
senile plaque = experiment: 19F-MR image measurement in amyloid precursor protein transgenic mouse (Tg2576); format: in vivo; conditions: tail vein, 8 mg/ml 250 μl, measured for 3 hours after 3 hours post administration
Procedure: A quantity of 4.5 mg of compound (I) was measured, and 0.112 ml of Cremophol EL was added to the measured compound. The compound was dissolved by use of a glass stick while the mixture being heated. Then, 0.45 ml of saline was added to the mixture to prepare an administration solution (8 mg/ml).
This administration solution 250 μl was administered, in one shot (about 90 seconds), to the tail vein of an amyloid precursor protein transgenic mouse (Tg2576, created according to the method disclosed in Science, 274,99 (1996)) under anesthesia by pentobarbital sodium.
After the administration was ended, with the mouse under anesthesia, the head of the mouse was continuously measured in units of 1 hour by use of an MRI device. Then, pieces of data were added to create images. ^19F-MRI brain images were obtained by chemical shift imaging method (CSI method). The MRI device that was used was 7T Unity Inova MR Scanner (by Varian).

[1] = molecular target: amyloid β peptide aggregates (1-40) (Homo sapiens (Human), UniProt P05067); format: binding; conditions: aggregates 1 μM, thioflavin-T 3 μM, compound 0.02 to 20 μM, 30 minutes at 23° C., pH 7.4; read-out: Amyloid binding property (IC50)
Chain of amyloid β peptide aggregates (1-40) (P05067 672-711): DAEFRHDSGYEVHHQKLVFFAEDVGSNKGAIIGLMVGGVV
Procedure: The binding capacity of the compounds to an amyloid β peptide aggregate was quantitatively measured by a thioflavin-T fluorescence inhibition test. […] The resultant solution was cause to react for 30 minutes at 23° C. with the light shielded. Then, the fluorescence of thioflavin-T was measured under a condition of Ex=440 nm, Em=490 nm, Cutoff filter=475 nm. The IC50 values were calculated by using an analysis software, GraphPad PRISM Ver.5 (GraphPad Software, Inc.).

senile plaques = experiment: Brain tissue staining after in vivo administration; parameters: species or system mouse
Procedure: The brain of the mouse scanned by ^19F-MRI in test example 2 was taken out and fixed for 2 days in a 4%-formalin solution, and then placed in a 15%-sucrose solution for cryoprotection. Then, a 20 μm-thick slice was created by a cryostat. Next, the slice was caused to react with a rabbit antihuman amyloid β polyclonal antibody (IBL, 0.2 μg/ml) at 4° C. overnight. Further, the sample was washed with PBS-T for 10 minutes 3 times, and then caused to react with Alexa 647 anti-rabbit IgG antibody (Molecular Probes, 500-fold dilution) for 4 hours at room temperature. This sample was washed with PBS-T for 10 minutes 3 times, and then counterstained with cresyl violet for 1 minute. Then, the sample was further washed with distilled water, and then enclosed with glycerol, and this sample was used for observation. The binding capacity of the compound to a senile plaque was observed by an inverted fluorescence microscope. It should be noted that a compound image was measured by use of the FITC filter and an amyloid β protein image was measured by means of the Cy5 filter. The same treatment was performed onto a normal mouse.

[2] = molecular target: T1, amyloid β peptide aggregates (Homo sapiens (Human), UniProt P05067); experiment: Binding to and release from precipitated amyloid β peptide aggregates (absorbance of supernatant)
T1 sequence (P05067 672-711): as above
Procedure: Each of compound 23, compound 1, and compound 24 is dissolved at a concentration of 2 μg/mL, in a phosphate buffer, and then amyloid β peptide aggregates are added to each solution, and the resultant solution is caused to react for 1 hour. Then, the solution is centrifuged for 10 minutes at 6,000 rpm, to separate the amyloid β peptide aggregates. A supernatant was removed, and an absorbance measurement was performed to measure the quantity of the compound that had not bound to the amyloid peptide aggregates and that were contained in the supernatant. The obtained quantity was subtracted from the original quantity of the compound, whereby the quantity of the compound that had bound to the amyloid β peptide aggregates was calculated.
Next, the precipitated amyloid β peptide aggregates were washed, a buffer was added thereto, and the quantity of the compound that got released was measured. Then, the rate of the compound that had bound to amyloid β peptide aggregates and then was eluted into the buffer was calculated using the original quantity of the compound as 100%.

[3] = molecular target: T1, amyloid β peptide aggregates; experiment: Quantity determination of amyloid β aggregates by flow cytometry with anti-Aβ antibody microspheres; conditions: FACS, 5 to 60 minutes at 4° C., background of nonspecific IgG1 microspheres subtracted
Procedure: The washing operation was performed as follows: 0.75 mL of PBS-T was added, the resultant mixture was centrifuged at 10,000×G for 5 minutes, and then the supernatant was removed. […] During the reaction, the mixture was agitated every 5 to 15 minutes. After the reaction, the microspheres were washed 3 times by the same method above, then suspended in PBS-T 0.25 mL, and kept at 4° C. until they were used. Negative control microspheres were prepared by use of a nonspecific mouse IgG1 antibody (by SIGMA, No. M 9269, mouse myeloma-derived IgG1, 1 mg/mL) by the same method. […] By subtracting as a background the analysis value of the negative control microspheres to which the nonspecific mouse IgG1 antibody was bound, the number of counts of anti Aβ antibody-specific fluorescence positive microsphere particles was determined.

[4] = molecular target: T1, amyloid β peptide aggregates; experiment: Model experiment of in-vitro diagnostic agent (colour change of solution)
Procedure: Amyloid β peptide aggregates were prepared by the method described in test example 6, and caused to precipitate in the solution by prolonging the reaction time. After the aggregates were prepared in this manner, the precipitation containing the amyloid β peptide aggregates and a supernatant not containing the amyloid β peptide aggregates were separated. The precipitation containing the amyloid aggregates was suspended at a concentration of 100 μM, in a buffer. Then, each of compounds 23 and 1 was dissolved at a concentration of 20 μg/ml in a 50 mM phosphate buffer (pH 7.5) containing 100 mM NaCl. For each compound, four kinds of liquid mixtures were prepared, that is, a liquid mixture obtained by adding 100 μl of a buffer into 100 μl of the compound containing solution (A of FIG. 13); a liquid mixture obtained by adding 100 μl of a buffer in which amyloid β peptides before agglutination reaction were dissolved, to 100 μl of the compound containing solution (B of FIG. 13); a liquid mixture obtained by adding 100 μl of a buffer in which amyloid β peptide aggregates were suspended, to 100 μl of the compound containing solution (C of FIG. 13); and a liquid mixture obtained by adding 100 μl of a buffer in which amyloid β peptide aggregates were suspended, to 100 μl of a buffer not containing a compound (D of FIG. 13). Then, the four kinds of liquid mixtures were left to stand at room temperature. […] Only the sample in which compound 1 and amyloid β peptide aggregates were mixed began to be stained in red after 5 minutes, and the color became gradually stronger and changed into strong red after about 30 minutes. […] When the absorption spectrum of the sample that had turned into red was measured, the peak had shifted towards a longer wavelength. […] As a result, it is considered that the keto/enol equilibrium in the solution was lost, and structural changes happened, that is, the keto bodies newly turned into enol bodies in the solution.

[5] = compound 20 μg/ml solution mixed with amyloid β peptide aggregates, room temperature

COC(=O)CCC(C(=O)/C=C/c1ccc(O)c(OC(F)(F)F)c1)C(=O)/C=C/c1ccc(O)c(OC(F)(F)F)c1 [Compound 1, 1,7-bis(4′-hydroxy-3′-trifluoromethoxyphenyl)-4-methoxycarbonylethyl-1,6-heptadiene-3,5-dione]
19F-MRI signal in brain (senile plaque): signals that are assumed to be corresponding to a senile plaque were detected in the brain | IC50 [1]: 440 nM | transmissiveness through the blood-brain barrier (senile plaques; Tg2576 mouse after i.v. administration): confirmed | binding to senile plaques in vivo (senile plaques; brain slices of Tg2576 mouse after i.v. administration, fluorescence vs amyloid β antibody stain): sufficient binding | binding rate to amyloid β peptide aggregates ([2]; compound 2 μg/mL in phosphate buffer, 1 hour reaction): 57% | rate of compound released (eluted into buffer) from amyloid β peptide aggregates ([2]; washed precipitated aggregates, buffer added, original quantity as 100%): highest value | counts of fluorescence positive microsphere particles depending on aggregate concentration [3]: quantitativeness was confirmed | time at which colour changed into strong red [4, 5]: about 30 minutes | time at which sample began to be stained in red [4, 5]: 5 min | colour of sample with amyloid β peptides before agglutination reaction ([4]; compound 20 μg/ml solution mixed with non-aggregated amyloid β peptides): did not change
